Experimental data from PubChem BioAssay (NCI).
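Compound exposure: 48 hours, 5 concentrations, 96-well plates. TGI marks complete inhibition of growth.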

Columns and labels:
Assay in all cases: inhibition of tumour cell growth, NCI panel, 48 h
[1] = tested on: RXF 393 renal
[2] = tested on: KM12 colon
[3] = tested on: OVCAR-8 ovarian
[4] = tested on: SK-MEL-2 melanoma
[5] = tested on: BT-549 breast
[6] = tested on: CAKI-1 renal
[7] = tested on: CCRF-CEM leukemia
[8] = tested on: MOLT-4 leukemia
[9] = tested on: SN12C renal
[10] = tested on: HS 578T breast
[11] = tested on: SK-MEL-28 melanoma
[12] = tested on: PC-3 prostate
[13] = tested on: SF-295 CNS
[14] = tested on: UO-31 renal
[15] = tested on: SNB-19 CNS
[16] = tested on: NCI/ADR-RES ovarian
[17] = tested on: ACHN renal
[18] = tested on: M14 melanoma
[19] = tested on: NCI-H226 lung
[20] = tested on: HCT-116 colon
[21] = tested on: HOP-92 NSCLC
[22] = tested on: 786-0 renal
[23] = tested on: HCT-15 colon
[24] = tested on: HCC-2998 colon
[25] = tested on: SF-268 CNS
[26] = tested on: MALME-3M melanoma
[27] = tested on: COLO 205 colon
[28] = tested on: SK-MEL-5 melanoma
[29] = tested on: SK-OV-3 ovarian
[30] = tested on: SF-539 CNS
[31] = tested on: A498 renal
[32] = tested on: TK-10 renal
[33] = tested on: SW-620 colon
[34] = tested on: NCI-H522 lung
[35] = tested on: OVCAR-3 ovarian
[36] = tested on: HOP-62 NSCLC
[37] = tested on: UACC-257 melanoma
[38] = tested on: IGROV1 ovarian
[39] = tested on: K-562 leukemia
[40] = tested on: MCF7 breast
[41] = tested on: MDA-MB-435
[42] = tested on: OVCAR-5 ovarian
[43] = tested on: SNB-75 CNS
[44] = tested on: NCI-H460 lung
[45] = tested on: MDA-MB-231 breast
[46] = tested on: OVCAR-4 ovarian
[47] = tested on: MDA-N
[48] = tested on: A549 NSCLC
[49] = tested on: EKVX NSCLC
[50] = tested on: HL-60(TB) leukemia
[51] = tested on: DU-145 prostate
[52] = tested on: SR leukemia
[53] = tested on: T-47D breast
[54] = tested on: HT29 colon
[55] = tested on: UACC-62 melanoma
[56] = tested on: U251 CNS
[57] = tested on: NCI-H23 lung
[58] = tested on: LOX IMVI melanoma
[59] = tested on: RPMI-8226 leukemia

CCOC(=O)c1ccc(NC(=O)O/N=C(/Cl)CC)cc1
TGI [1]: 31.1 µM | TGI [2]: 36.1 µM | TGI [3]: 30.4 µM | TGI [4]: 31.9 µM | TGI [5]: 59.5 µM | TGI [6]: 8.72 µM | TGI [7]: 4.54 µM | TGI [8]: 4.51 µM | TGI [9]: 39.3 µM | TGI [10]: 67.5 µM | TGI [11]: 30.6 µM | TGI [12]: 33.3 µM | TGI [13]: 36.4 µM | TGI [14]: 31.4 µM | TGI [15]: 45.5 µM | TGI [16]: 22 µM | TGI [17]: 22.9 µM | TGI [18]: 25.6 µM | TGI [19]: 40 µM | TGI [20]: 26.1 µM | TGI [21]: 6.77 µM | TGI [22]: 13 µM | TGI [23]: 28.9 µM | TGI [24]: 32.6 µM | TGI [25]: 48 µM | TGI [26]: 9.14 µM | TGI [27]: 5.5 µM | TGI [28]: 29.5 µM | TGI [29]: 31.7 µM | TGI [30]: 33.6 µM | TGI [31]: 32.4 µM | TGI [32]: > 34.4 µM | TGI [33]: 3.36 µM | TGI [34]: 6.81 µM | TGI [35]: 3.5 µM | TGI [36]: 38.1 µM | TGI [37]: 29.8 µM | TGI [38]: 41.3 µM | TGI [39]: 3.6 µM | TGI [40]: 30.9 µM | TGI [41]: 34.6 µM | TGI [42]: 34.3 µM | TGI [43]: 28.2 µM | TGI [44]: 40.9 µM | TGI [45]: 42.5 µM | TGI [46]: 10.1 µM | TGI [47]: 32.6 µM | TGI [48]: > 60.8 µM | TGI [49]: 32.2 µM | TGI [50]: 6.47 µM | TGI [51]: 33.5 µM | TGI [52]: 11.6 µM | TGI [53]: 19.8 µM | TGI [54]: 44.5 µM | TGI [55]: 45.4 µM | TGI [56]: 34.3 µM | TGI [57]: 39.9 µM

O=C1CC2(CCC(O)(c3ccccc3)C(C(=O)c3ccccc3)C2)C(=O)c2ccccc2N1 (configuration not stated)
TGI [1]: > 100 µM | TGI [3]: > 100 µM | TGI [4]: > 100 µM | TGI [5]: > 100 µM | TGI [6]: > 100 µM | TGI [7]: > 100 µM | TGI [8]: > 100 µM | TGI [9]: > 100 µM | TGI [10]: > 100 µM | TGI [11]: > 100 µM | TGI [12]: > 100 µM | TGI [13]: > 100 µM | TGI [14]: > 100 µM | TGI [15]: > 100 µM | TGI [16]: > 100 µM | TGI [18]: > 100 µM | TGI [19]: > 100 µM | TGI [20]: > 100 µM | TGI [21]: > 100 µM | TGI [23]: > 100 µM | TGI [24]: > 100 µM | TGI [25]: > 100 µM | TGI [58]: > 100 µM | TGI [26]: > 100 µM | TGI [27]: > 100 µM | TGI [28]: > 100 µM | TGI [29]: > 100 µM | TGI [30]: > 100 µM | TGI [31]: > 100 µM | TGI [32]: > 100 µM | TGI [33]: > 100 µM | TGI [35]: > 100 µM | TGI [36]: > 100 µM | TGI [37]: > 100 µM | TGI [38]: > 100 µM | TGI [39]: > 100 µM | TGI [40]: > 100 µM | TGI [41]: > 100 µM | TGI [42]: > 100 µM | TGI [43]: > 100 µM | TGI [44]: > 100 µM | TGI [45]: > 100 µM | TGI [46]: > 100 µM | TGI [47]: > 100 µM | TGI [48]: > 100 µM | TGI [49]: > 100 µM | TGI [50]: > 100 µM | TGI [51]: > 100 µM | TGI [52]: > 100 µM | TGI [53]: > 100 µM | TGI [54]: > 100 µM | TGI [55]: > 100 µM | TGI [56]: > 100 µM | TGI [57]: > 100 µM

O=C(Nc1ccccc1)c1cc(S(=O)(=O)n2cc[nH]c2=O)c(S)cc1Cl
TGI [1]: > 100 µM | TGI [59]: > 100 µM | TGI [2]: > 100 µM | TGI [3]: > 100 µM | TGI [4]: > 100 µM | TGI [5]: > 100 µM | TGI [6]: > 100 µM | TGI [7]: > 100 µM | TGI [8]: > 100 µM | TGI [9]: > 100 µM | TGI [10]: > 100 µM | TGI [11]: > 100 µM | TGI [12]: > 100 µM | TGI [13]: > 100 µM | TGI [14]: > 100 µM | TGI [15]: > 100 µM | TGI [16]: > 100 µM | TGI [17]: > 100 µM | TGI [18]: > 100 µM | TGI [19]: > 100 µM | TGI [20]: > 100 µM | TGI [21]: > 100 µM | TGI [22]: > 100 µM | TGI [23]: > 100 µM | TGI [24]: > 100 µM | TGI [25]: > 100 µM | TGI [58]: > 100 µM | TGI [27]: > 100 µM | TGI [28]: > 100 µM | TGI [30]: > 100 µM | TGI [31]: > 100 µM | TGI [32]: > 100 µM | TGI [33]: > 100 µM | TGI [34]: > 100 µM | TGI [35]: > 100 µM | TGI [36]: > 100 µM | TGI [37]: > 100 µM | TGI [38]: > 100 µM | TGI [39]: > 100 µM | TGI [40]: > 100 µM | TGI [41]: > 100 µM | TGI [42]: > 100 µM | TGI [43]: 97.5 µM | TGI [44]: > 100 µM | TGI [45]: > 100 µM | TGI [47]: > 100 µM | TGI [48]: > 100 µM | TGI [49]: > 100 µM | TGI [50]: > 100 µM | TGI [51]: > 100 µM | TGI [52]: > 100 µM | TGI [53]: > 100 µM | TGI [54]: > 100 µM | TGI [55]: > 100 µM | TGI [56]: > 100 µM | TGI [57]: > 100 µM
